Reference: PubChem BioAssay AID330 (DTP/NCI, 2004)
“And” between values parts separate entries of the source, which are not always exact repeats. Equal entries are not always repeated. Inconclusive results and toxic doses are left out. Rule for the calls: active = survival T/C of 150% or more; inactive = T/C below 125% in these data. Peptide text beside a SMILES is read from it. * marks the point of attachment. Cbz = O=C(OCc1ccccc1)*; Bn = c1ccc(C*)cc1; NHNH2 = NN*

System: P388 leukemia ip, CD2F1 mice, survival T/C
Assay: NCI In Vivo Anticancer Drug Screen. Data for tumor model P388 Leukemia (intraperitoneal) in CD2F1 (CDF1) mice
Conditions: endpoint: median survival time, higher = longer survival
Summary of the method: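 Mice carrying the transplanted tumor received test compound or vehicle. Survival was recorded in each group, and the value is the treated-group measurement divided by that of the vehicle-treated control group.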

[1] = dose: 12.5 mg/kg/injection, schedule: Q04DX002 (ip), vehicle: saline
[2] = dose: 25.0 mg/kg/injection, schedule: Q04DX002 (ip), vehicle: saline
[3] = dose: 50.0 mg/kg/injection, schedule: Q04DX002 (ip), vehicle: saline
[4] = dose: 60.0 mg/kg/injection, schedule: Q01DX005 (ip), vehicle: saline with Tween-80
[5] = dose: 120.0 mg/kg/injection, schedule: Q01DX005 (ip), vehicle: saline with Tween-80
[6] = dose: 50.0 mg/kg/injection, schedule: Q01DX009 (ip), vehicle: saline
[7] = dose: 100.0 mg/kg/injection, schedule: Q01DX009 (ip), vehicle: saline
[8] = dose: 200.0 mg/kg/injection, schedule: Q01DX009 (ip), vehicle: saline
[9] = dose: 50.0 mg/kg/injection, schedule: Q01DX009 (ip), vehicle: saline with Tween-80
[10] = dose: 100.0 mg/kg/injection, schedule: Q01DX009 (ip), vehicle: saline with Tween-80
[11] = dose: 200.0 mg/kg/injection, schedule: Q01DX009 (ip), vehicle: saline with Tween-80
[12] = dose: 12.5 mg/kg/injection, schedule: Q01DX005 (ip), vehicle: saline with Tween-80
[13] = dose: 25.0 mg/kg/injection, schedule: Q01DX005 (ip), vehicle: saline with Tween-80
[14] = dose: 50.0 mg/kg/injection, schedule: Q01DX005 (ip), vehicle: saline with Tween-80
[15] = dose: 50.0 mg/kg/injection, schedule: Q01DX009 (ip), vehicle: Klucel (hydroxypropylcellulose) (HPC)
[16] = dose: 100.0 mg/kg/injection, schedule: Q01DX009 (ip), vehicle: Klucel (hydroxypropylcellulose) (HPC)
[17] = dose: 200.0 mg/kg/injection, schedule: Q01DX009 (ip), vehicle: Klucel (hydroxypropylcellulose) (HPC)

Measured: T/C

O=S(=O)(O)Cc1ccc(CS(=O)(=O)O)cc1
inactive: [1] 93 % of control | [2] 102 % of control | [3] 98 % of control

COC(=O)c1c(O)c(OC)c(-c2ccccc2)[nH]c1=O
inactive: [4] 89 % of control | [5] 89 % of control

Cc1cc2nc(SCC(N)=O)nn2c(C)n1
inactive: [4] 100 % of control | [5] 100 % of control | dose: 240.0 mg/kg/injection, schedule: Q01DX005 (ip), vehicle: saline with Tween-80 99 % of control

Cc1cc(C)c(C(=O)CCl)c(C)c1C(=O)CCl
inactive: dose: 100.0 mg/kg/injection, schedule: Q01DX001 (ip), vehicle: saline with Tween-80 102 % of control | dose: 200.0 mg/kg/injection, schedule: Q01DX001 (ip), vehicle: saline with Tween-80 110 % of control | dose: 400.0 mg/kg/injection, schedule: Q01DX001 (ip), vehicle: saline with Tween-80 109 % of control

OCC(O)C(O)C(O)Cc1ccc(O)cc1O (centres undefined)
inactive: [6] 98 % of control | [7] 106 % of control | [8] 104 % of control

COc1cccc2c1C(=O)c1c(O)c3c(c(O)c1C2=O)C[C@@](O)(C(C)=O)C[C@@H]3OC1CC(N2CCOCC2)C(O)C(C)O1 (some centres undefined)
inactive: dose: 25.0 micrograms/kg/injection, schedule: Q04DX003 (ip), vehicle: water 112 % of control | dose: 50.0 micrograms/kg/injection, schedule: Q04DX003 (ip), vehicle: water 101 % of control and 98 % of control and 108 % of control | dose: 100.0 micrograms/kg/injection, schedule: Q04DX003 (ip), vehicle: water 115 % of control [middle of 4 runs]

Nc1ncnc2nc[nH]c12
inactive: dose: 16.0 mg/kg/injection, schedule: Q01DX009 (ip), vehicle: Klucel (hydroxypropylcellulose) (HPC) 100 % of control | dose: 32.0 mg/kg/injection, schedule: Q01DX009 (ip), vehicle: Klucel (hydroxypropylcellulose) (HPC) 103 % of control and 108 % of control and 109 % of control | dose: 32.0 mg/kg/injection, schedule: Q01DX009 (ip), vehicle: saline with Tween-80 106 % of control and 118 % of control | [9] 99 % of control | dose: 64.0 mg/kg/injection, schedule: Q01DX009 (ip), vehicle: Klucel (hydroxypropylcellulose) (HPC) 106 % of control | dose: 64.0 mg/kg/injection, schedule: Q01DX009 (ip), vehicle: saline with Tween-80 111 % of control and 97 % of control | [10] 114 % of control | dose: 128.0 mg/kg/injection, schedule: Q01DX009 (ip), vehicle: Klucel (hydroxypropylcellulose) (HPC) 110 % of control | dose: 128.0 mg/kg/injection, schedule: Q01DX009 (ip), vehicle: saline with Tween-80 100 % of control and 108 % of control | [11] 110 % of control | dose: 256.0 mg/kg/injection, schedule: Q01DX009 (ip), vehicle: Klucel (hydroxypropylcellulose) (HPC) 88 % of control | dose: 256.0 mg/kg/injection, schedule: Q01DX009 (ip), vehicle: saline with Tween-80 118 % of control

COC(=O)C(Cl)Cc1cncn1C (centres undefined)
inactive: [9] 94 % of control | [10] 92 % of control | [11] 93 % of control

CN1CC[C@]23c4c5ccc(O)c4O[C@H]2C(=O)CC[C@@]3(O)[C@H]1C5
inactive: [6] 94 % of control | [7] 109 % of control | [8] 102 % of control

CC(CC(=O)c1ccccc1)=NCCN=C(C)CC(=O)c1ccccc1.c1cc[c]([Sn][c]2ccccc2)cc1
inactive: dose: 25.0 mg/kg/injection, schedule: Q01DX001 (ip), vehicle: Klucel (hydroxypropylcellulose) (HPC) 108 % of control | dose: 50.0 mg/kg/injection, schedule: Q01DX001 (ip), vehicle: Klucel (hydroxypropylcellulose) (HPC) 124 % of control

CCCCCCCCN(CCCCCCCC)C(=N)c1ccnc2ccccc12
inactive: dose: 6.25 mg/kg/injection, schedule: Q01DX005 (ip), vehicle: saline with Tween-80 101 % of control | [12] 101 % of control | [13] 97 % of control | [14] 96 % of control

CCOC(=O)NNCC(=O)OCc1ccccc1
inactive: dose: 25.0 mg/kg/injection, schedule: Q01DX009 (ip), vehicle: other 90 % of control | dose: 50.0 mg/kg/injection, schedule: Q01DX009 (ip), vehicle: other 93 % of control | dose: 100.0 mg/kg/injection, schedule: Q01DX009 (ip), vehicle: other 100 % of control | dose: 200.0 mg/kg/injection, schedule: Q01DX009 (ip), vehicle: other 109 % of control

[O-][n+]1nc2ccccc2c2ccccc21
inactive: dose: 12.5 mg/kg/injection, schedule: Q01DX009 (ip), vehicle: Klucel (hydroxypropylcellulose) (HPC) 105 % of control | dose: 25.0 mg/kg/injection, schedule: Q01DX009 (ip), vehicle: Klucel (hydroxypropylcellulose) (HPC) 105 % of control | [15] 105 % of control and 97 % of control | [16] 102 % of control

COc1ccc(OC)c(NC(=O)Nc2ncccn2)c1
inactive: [15] 106 % of control | [16] 100 % of control | [17] 103 % of control

NNC(=O)C(Cc1ccc(O)cc1)NC(=O)C(CSCc1ccccc1)NC(=O)OCc1ccccc1 (centres undefined) (Cbz-Cys(Bn)-Tyr-NHNH2; configuration not given here)
inactive: [15] 93 % of control | [16] 91 % of control | [17] 89 % of control

CCC/C=C(/C=N/Nc1ccc([N+](=O)[O-])cc1[N+](=O)[O-])CC
inactive: [12] 97 % of control | [13] 109 % of control | [14] 91 % of control and 95 % of control

CCN1N=Nc2ccccc2C1O (centres undefined)
inactive: [1] 98 % of control | [2] 98 % of control | [3] 100 % of control

CCOC(=O)Nc1cc2c(c(N)n1)N=C(c1ccc3ccccc3c1)CN2
active: dose: 5.0 mg/kg/injection, schedule: Q01DX005 (ip), vehicle: saline with Tween-80 153 % of control | dose: 7.5 mg/kg/injection, schedule: Q01DX005 (ip), vehicle: saline with Tween-80 165 % of control | dose: 10.0 mg/kg/injection, schedule: Q01DX005 (ip), vehicle: saline with Tween-80 166 % of control and 168 % of control
